Laboratory results reported in ChEMBL document CHEMBL1201862, “PubChem BioAssay data set” (2004).
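Tested at 5 concentrations; 48 h exposure; 96-well plates; endpoints linearly interpolated, else capped at highest concentration. The concentration for 50% growth inhibition is given as GI50.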 Active and inactive are the calls of the source. Rule as the data show it: active = GI50 up to about 1.1 µM and inactive = higher.

Key:
Assay in all cases: growth of human tumour cells (NCI), 48 h
SF-268 = test system: SF-268
UACC-257 = test system: UACC-257
UO-31 = test system: UO-31
CAKI-1 = test system: CAKI-1
SNB-75 = test system: SNB-75
NCI-H23 = test system: NCI-H23
U-251 = test system: U-251
SN12C = test system: SN12C
NCI-H460 = test system: NCI-H460
COLO 205 = test system: COLO 205
K562 = test system: K562
UACC-62 = test system: UACC-62
LOX IMVI = test system: LOX IMVI
SK-MEL-28 = test system: SK-MEL-28
SNB-19 = test system: SNB-19
HCC 2998 = test system: HCC 2998
CCRF-CEM = test system: CCRF-CEM
ACHN = test system: ACHN
KM-20L2 = test system: KM-20L2
DLD-1 = test system: DLD-1
DMS-114 = test system: DMS-114
RPMI-8226 = test system: RPMI-8226
SR = test system: SR
OVCAR-3 = test system: OVCAR-3
HL-60 = test system: HL-60
HCT-15 = test system: HCT-15
HCT-116 = test system: HCT-116
SW-620 = test system: SW-620
HT-29 = test system: HT-29
LXFL 529 = test system: LXFL 529
RXF 393 = test system: RXF 393
SF-295 = test system: SF-295
SNB-78 = test system: SNB-78
TK-10 = test system: TK-10
IGROV-1 = test system: IGROV-1
A549 = test system: A549
OVCAR-8 = test system: OVCAR-8
KM12 = test system: KM12
NCI-H522 = test system: NCI-H522
NCI-H226 = test system: NCI-H226
EKVX = test system: EKVX
OVCAR-5 = test system: OVCAR-5
M14 = test system: M14
786-0 = test system: 786-0
OVCAR-4 = test system: OVCAR-4
A498 = test system: A498
SF-539 = test system: SF-539
HOP-62 = test system: HOP-62
MOLT-4 = test system: MOLT-4
DMS-273 = test system: DMS-273
SK-MEL-2 = test system: SK-MEL-2
M19-MEL = test system: M19-MEL
HOP-92 = test system: HOP-92
SK-MEL-5 = test system: SK-MEL-5
SK-OV-3 = test system: SK-OV-3
Malme-3M = test system: Malme-3M

Measured: GI50

C=C1c2[nH]c3c([N+](=O)[O-])c(OC)ccc3c2CCN1C(C)=O
> 100 µM: HCT-15
inactive: SF-268 28.7 µM | UACC-257 > 100 µM | UO-31 > 100 µM | CAKI-1 21.6 µM | SNB-75 25 µM | NCI-H23 > 100 µM | U-251 > 100 µM | SN12C > 100 µM | NCI-H460 > 100 µM | COLO 205 > 100 µM | K562 > 100 µM | UACC-62 61.9 µM | LOX IMVI > 100 µM | SK-MEL-28 > 100 µM | SNB-19 > 100 µM | HCC 2998 > 100 µM | CCRF-CEM > 100 µM | ACHN > 100 µM | KM-20L2 > 100 µM | DLD-1 22.1 µM | DMS-114 > 100 µM | RPMI-8226 > 100 µM | SR > 100 µM | OVCAR-3 > 100 µM | HL-60 > 100 µM | HCT-116 > 100 µM | SW-620 > 100 µM | HT-29 > 100 µM | LXFL 529 > 100 µM | RXF 393 > 100 µM | SF-295 > 100 µM | SNB-78 > 100 µM | TK-10 > 100 µM | IGROV-1 > 100 µM | A549 > 100 µM | OVCAR-8 > 100 µM | KM12 > 100 µM | NCI-H522 > 100 µM | NCI-H226 > 100 µM | EKVX > 100 µM | OVCAR-5 > 100 µM | M14 > 100 µM | 786-0 > 100 µM | OVCAR-4 > 100 µM | A498 > 100 µM | SF-539 > 100 µM | HOP-62 > 100 µM | MOLT-4 > 100 µM | DMS-273 > 100 µM | SK-MEL-2 > 100 µM

COc1ccc(C(=O)C2CCC(C(=O)O)C2)cc1 (stereo not drawn)
inactive: UACC-257 > 100 µM | UO-31 > 100 µM | CAKI-1 > 100 µM | M19-MEL > 100 µM | SNB-75 > 100 µM | NCI-H23 > 100 µM | U-251 > 100 µM | SN12C > 100 µM | NCI-H460 > 100 µM | COLO 205 > 100 µM | K562 > 100 µM | UACC-62 > 100 µM | LOX IMVI > 100 µM | SK-MEL-28 > 100 µM | SNB-19 > 100 µM | HCC 2998 > 100 µM | CCRF-CEM > 100 µM | ACHN > 100 µM | KM-20L2 > 100 µM | DLD-1 > 100 µM | DMS-114 > 100 µM | RPMI-8226 > 100 µM | SR > 100 µM | OVCAR-3 > 100 µM | HL-60 > 100 µM | HCT-116 > 100 µM | SW-620 > 100 µM | HT-29 > 100 µM | LXFL 529 > 100 µM | RXF 393 > 100 µM | SF-295 > 100 µM | SNB-78 > 100 µM | TK-10 > 100 µM | IGROV-1 > 100 µM | A549 > 100 µM | OVCAR-8 > 100 µM | HOP-92 > 100 µM | KM12 > 100 µM | NCI-H522 > 100 µM | SK-MEL-5 > 100 µM | NCI-H226 > 100 µM | EKVX > 100 µM | OVCAR-5 > 100 µM | M14 > 100 µM | 786-0 > 100 µM | OVCAR-4 > 100 µM | A498 > 100 µM | SF-539 > 100 µM | HOP-62 > 100 µM | MOLT-4 > 100 µM | DMS-273 > 100 µM | SK-OV-3 > 100 µM | SK-MEL-2 > 100 µM | Malme-3M > 100 µM
> 100 µM: HCT-15

CC(C)=CCCC1(C)C=Cc2c(ccc3c2[nH]c2cc(O)c(C)cc23)O1 (stereo not drawn)
inactive: DMS-114 7.14 µM | RPMI-8226 6.59 µM | OVCAR-3 4.75 µM | SNB-78 13 µM | OVCAR-8 3.81 µM | OVCAR-5 19.4 µM | OVCAR-4 7.94 µM
